Measurements: PubChem BioAssay AID328 (DTP/NCI, 2004)
Several values for one entry are separate records, joined by “and”; a condition that tells them apart may be missing. Identical values can stand only once. Toxic doses and inconclusive results are not listed.

Test system: BDF1 mice, P388 leukemia ip, median survival T/C
Assay: NCI In Vivo Anticancer Drug Screen. Data for tumor model P388 Leukemia (intraperitoneal) in B6D2F1 (BDF1) mice
Conditions: endpoint: median survival time, higher = longer survival
Method in brief: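 Read-out is survival of treated animals expressed relative to the vehicle group, as a T/C ratio.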

[1] = dose: 100.0 mg/kg/injection, schedule: Q01DX009 (ip), vehicle: saline with Tween-80
[2] = dose: 200.0 mg/kg/injection, schedule: Q01DX009 (ip), vehicle: saline with Tween-80
[3] = dose: 400.0 mg/kg/injection, schedule: Q01DX009 (ip), vehicle: saline with Tween-80
[4] = dose: 100.0 mg/kg/injection, schedule: Q04DX003 (ip), vehicle: saline with Tween-80
[5] = dose: 200.0 mg/kg/injection, schedule: Q04DX003 (ip), vehicle: saline with Tween-80
[6] = dose: 400.0 mg/kg/injection, schedule: Q04DX003 (ip), vehicle: saline with Tween-80

O=C(O)CCN1CCCc2ccccc21
T/C (dose: 50.0 mg/kg/injection, schedule: Q01DX009 (ip), vehicle: other): 95 % of control | T/C (dose: 100.0 mg/kg/injection, schedule: Q01DX009 (ip), vehicle: other): 104 % of control | T/C (dose: 200.0 mg/kg/injection, schedule: Q01DX009 (ip), vehicle: other): 95 % of control

COc1cc(NS(C)(=O)=O)ccc1NS(C)(=O)=O
T/C (dose: 100.0 mg/kg/injection, schedule: Q01DX009 (ip), vehicle: Klucel (hydroxypropylcellulose) (HPC)): 87 % of control | T/C (dose: 200.0 mg/kg/injection, schedule: Q01DX009 (ip), vehicle: Klucel (hydroxypropylcellulose) (HPC)): 87 % of control | T/C (dose: 400.0 mg/kg/injection, schedule: Q01DX009 (ip), vehicle: Klucel (hydroxypropylcellulose) (HPC)): 87 % of control

CCOC(=O)C(Cc1ccc(N(CCCl)CCCl)cc1)NC(=O)C(CC(C)C)NC(C)=O (stereo unspecified)
T/C (dose: 5.0 mg/kg/injection, schedule: Q04DX003 (ip), vehicle: water): 114 % of control | T/C (dose: 10.0 mg/kg/injection, schedule: Q04DX003 (ip), vehicle: water): 114 % of control | T/C (dose: 40.0 mg/kg/injection, schedule: Q04DX003 (ip), vehicle: water): 121 % of control

CCOC(=O)C(O)c1cccc(OC)c1 (stereo unspecified)
T/C [1]: 100 % of control | T/C (dose: 100.0 mg/kg/injection, schedule: Q04DX003 (ip), vehicle: saline sonified): 118 % of control | T/C [2]: 100 % of control | T/C (dose: 200.0 mg/kg/injection, schedule: Q04DX003 (ip), vehicle: saline sonified): 100 % of control | T/C [3]: 104 % of control | T/C (dose: 400.0 mg/kg/injection, schedule: Q04DX003 (ip), vehicle: saline sonified): 100 % of control

OCc1ccc(Cl)c(Cl)c1
T/C (dose: 100.0 mg/kg/injection, schedule: Q04DX003 (ip), vehicle: other): 104 % of control | T/C (dose: 200.0 mg/kg/injection, schedule: Q04DX003 (ip), vehicle: other): 104 % of control | T/C (dose: 400.0 mg/kg/injection, schedule: Q04DX003 (ip), vehicle: other): 100 % of control

NC(=O)c1nn(C2OC(CO)C(O)C2O)c2ncnc(N)c12 (stereo unspecified)
T/C (dose: 12.5 mg/kg/injection, schedule: Q01DX009 (ip), vehicle: Klucel (hydroxypropylcellulose) (HPC)): 118 % of control

COC(=O)CCC(=O)CCC(C)C
T/C (dose: 25.0 mg/kg/injection, schedule: Q01DX009 (ip), vehicle: saline with Tween-80): 107 % of control | T/C (dose: 50.0 mg/kg/injection, schedule: Q01DX009 (ip), vehicle: saline with Tween-80): 103 % of control | T/C [1]: 92 % of control | T/C [4]: 111 % of control | T/C [2]: 103 % of control | T/C [5]: 122 % of control | T/C [3]: 92 % of control | T/C [6]: 116 % of control

CCOC(=O)/C(C#N)=C/c1cc2c3c(c1)CCCN3CCC2
T/C [4]: 90 % of control | T/C [5]: 90 % of control | T/C [6]: 86 % of control

CCCCC(CCC)(CCN)CCCC
T/C (dose: 1.0 mg/kg/injection, schedule: Q01DX009 (ip), vehicle: Klucel (hydroxypropylcellulose) (HPC)): 100 % of control | T/C (dose: 2.0 mg/kg/injection, schedule: Q01DX009 (ip), vehicle: Klucel (hydroxypropylcellulose) (HPC)): 110 % of control | T/C (dose: 4.0 mg/kg/injection, schedule: Q01DX009 (ip), vehicle: Klucel (hydroxypropylcellulose) (HPC)): 105 % of control | T/C (dose: 8.0 mg/kg/injection, schedule: Q01DX009 (ip), vehicle: Klucel (hydroxypropylcellulose) (HPC)): 115 % of control

C=Cn1cnc2c(N)ncnc21
T/C [4]: 103 % of control | T/C [5]: 113 % of control | T/C [6]: 106 % of control

Cc1ccc(NS(=O)(=O)c2ccc(F)cc2)cc1Cl
T/C (dose: 100.0 mg/kg/injection, schedule: Q04DX003 (ip), vehicle: Klucel (hydroxypropylcellulose) (HPC)): 109 % of control | T/C (dose: 200.0 mg/kg/injection, schedule: Q04DX003 (ip), vehicle: Klucel (hydroxypropylcellulose) (HPC)): 100 % of control | T/C (dose: 400.0 mg/kg/injection, schedule: Q04DX003 (ip), vehicle: Klucel (hydroxypropylcellulose) (HPC)): 104 % of control

CC(Cl)CN(CC(C)Cl)c1ccc(S(=O)(=O)Nc2ncccn2)cc1 (stereo unspecified)
T/C (dose: 12.0 mg/kg/injection, schedule: Q01DX009 (ip), vehicle: gum acacia): 152 % of control | T/C (dose: 26.0 mg/kg/injection, schedule: Q01DX009 (ip), vehicle: gum acacia): 166 % of control and 172 % of control | T/C (dose: 40.0 mg/kg/injection, schedule: Q01DX009 (ip), vehicle: gum acacia): 175 % of control | T/C (dose: 50.0 mg/kg/injection, schedule: Q01DX009 (ip), vehicle: gum acacia): 190 % of control | T/C (dose: 50.0 mg/kg/injection, schedule: Q04DX003 (ip), vehicle: gum acacia): 100 % of control | T/C (dose: 60.0 mg/kg/injection, schedule: Q01DX009 (ip), vehicle: gum acacia): 183 % of control | T/C (dose: 90.0 mg/kg/injection, schedule: Q01DX009 (ip), vehicle: gum acacia): 183 % of control and 215 % of control | T/C (dose: 100.0 mg/kg/injection, schedule: Q01DX009 (ip), vehicle: gum acacia): 272 % of control | T/C (dose: 100.0 mg/kg/injection, schedule: Q04DX003 (ip), vehicle: gum acacia): 100 % of control | T/C (dose: 133.0 mg/kg/injection, schedule: Q01DX009 (ip), vehicle: gum acacia): 230 % of control | T/C (dose: 200.0 mg/kg/injection, schedule: Q04DX003 (ip), vehicle: gum acacia): 105 % of control

CC1(C)CCC(=O)O1
T/C (dose: 25.0 mg/kg/injection, schedule: Q01DX009 (ip), vehicle: water): 104 % of control | T/C (dose: 50.0 mg/kg/injection, schedule: Q01DX009 (ip), vehicle: water): 104 % of control | T/C (dose: 100.0 mg/kg/injection, schedule: Q01DX009 (ip), vehicle: water): 91 % of control | T/C (dose: 200.0 mg/kg/injection, schedule: Q01DX009 (ip), vehicle: water): 103 % of control | T/C (dose: 400.0 mg/kg/injection, schedule: Q01DX009 (ip), vehicle: water): 91 % of control

O=C(O)c1[nH]c(=O)[nH]c(=O)c1F
T/C (dose: 2.5 mg/kg/injection, schedule: Q01DX010 (ip), vehicle: saline): 152 % of control | T/C (dose: 10.0 mg/kg/injection, schedule: Q01DX010 (ip), vehicle: saline): 166 % of control

CCC(CO)NC(=O)Nc1cccc2ccccc12 (stereo unspecified)
T/C (dose: 100.0 mg/kg/injection, schedule: Q01DX001 (ip), vehicle: saline with Tween-80): 109 % of control | T/C (dose: 200.0 mg/kg/injection, schedule: Q01DX001 (ip), vehicle: saline with Tween-80): 100 % of control | T/C (dose: 400.0 mg/kg/injection, schedule: Q01DX001 (ip), vehicle: saline with Tween-80): 109 % of control

COc1cc(C(C2=C(O)c3ccccc3C(=O)C2=O)C2=C(O)c3ccccc3C(=O)C2=O)cc(Br)c1O
T/C (dose: 33.0 mg/kg/injection, schedule: Q01DX001 (ip), vehicle: saline): 95 % of control | T/C (dose: 50.0 mg/kg/injection, schedule: Q01DX001 (ip), vehicle: saline): 104 % of control | T/C (dose: 75.0 mg/kg/injection, schedule: Q01DX001 (ip), vehicle: saline): 100 % of control | T/C (dose: 100.0 mg/kg/injection, schedule: Q01DX001 (ip), vehicle: saline): 115 % of control | T/C (dose: 200.0 mg/kg/injection, schedule: Q01DX001 (ip), vehicle: saline): 110 % of control

CC(CCC(C)OS(C)(=O)=O)OS(C)(=O)=O (stereo unspecified)
T/C (dose: 2.0 mg/kg/injection, schedule: Q01DX010 (ip), vehicle: saline): 100 % of control | T/C (dose: 4.0 mg/kg/injection, schedule: Q01DX010 (ip), vehicle: saline): 95 % of control | T/C (dose: 8.0 mg/kg/injection, schedule: Q01DX010 (ip), vehicle: saline): 118 % of control | T/C (dose: 16.0 mg/kg/injection, schedule: Q01DX010 (ip), vehicle: saline): 122 % of control

CC(C)C(=O)OCC1OC(n2cnc3c(=S)nc[nH]c32)C(OC(=O)C(C)C)C1OC(=O)C(C)C (stereo unspecified)
T/C (dose: 88.0 mg/kg/injection, schedule: Q01DX009 (ip), vehicle: saline with Tween-80): 104 % of control | T/C [1]: 118 % of control | T/C (dose: 133.0 mg/kg/injection, schedule: Q01DX009 (ip), vehicle: saline with Tween-80): 95 % of control | T/C [2]: 100 % of control | T/C (dose: 300.0 mg/kg/injection, schedule: Q01DX009 (ip), vehicle: saline with Tween-80): 100 % of control | T/C [3]: 100 % of control
